Assay results reported in ChEMBL document CHEMBL5528012, “Discovery of novel deoxyvasicinone derivatives with benzenesulfonamide substituents as multifunctional agents against Alzheimer's disease” (Eur J Med Chem, 2024).

Experiments:
in vitro = conditions: PAMPA, pH 7.4
Description: Permeability of the compound at 30 to 50 uM at pH 7.4 by PAMPA-BBB assay

Acetylcholinesterase [1] = target: Acetylcholinesterase (Electrophorus electricus, UniProt O42275); experiment: Inhibition of electric eel AChE using acetylthiocholine iodide as substrate pre-incubated for 30 mins followed by substrate addition and measured after 5 mins by DTNB reagent based Ellman's method
Chain of Acetylcholinesterase (Electrophorus electricus, UniProt O42275) (O42275 whole entry): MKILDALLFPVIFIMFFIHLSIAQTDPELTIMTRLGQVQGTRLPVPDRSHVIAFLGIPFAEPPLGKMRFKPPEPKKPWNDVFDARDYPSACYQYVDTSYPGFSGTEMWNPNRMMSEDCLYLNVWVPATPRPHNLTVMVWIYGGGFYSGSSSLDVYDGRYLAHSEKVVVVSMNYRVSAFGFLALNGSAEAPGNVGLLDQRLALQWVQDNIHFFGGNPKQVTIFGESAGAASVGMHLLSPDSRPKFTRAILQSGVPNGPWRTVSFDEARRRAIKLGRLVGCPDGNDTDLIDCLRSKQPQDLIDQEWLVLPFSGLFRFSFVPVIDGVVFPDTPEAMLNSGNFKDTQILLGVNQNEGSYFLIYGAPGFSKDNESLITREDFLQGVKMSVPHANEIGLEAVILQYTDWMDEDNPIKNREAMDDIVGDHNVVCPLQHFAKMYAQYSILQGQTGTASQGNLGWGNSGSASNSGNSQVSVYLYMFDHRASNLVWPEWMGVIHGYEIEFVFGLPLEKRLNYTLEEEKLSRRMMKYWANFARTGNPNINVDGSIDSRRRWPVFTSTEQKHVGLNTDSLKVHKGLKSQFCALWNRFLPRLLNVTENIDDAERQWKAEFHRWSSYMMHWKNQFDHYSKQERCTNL

Cholinesterase = Cholinesterase (Equus caballus, UniProt P81908); experiment: Inhibition of equine serum BuChE using S-butyrylthiocholine iodide as substrate pre-incubated for 30 mins followed by substrate addition and measured after 5 mins by DTNB reagent based Ellman's method
Chain of Cholinesterase (P81908 whole entry): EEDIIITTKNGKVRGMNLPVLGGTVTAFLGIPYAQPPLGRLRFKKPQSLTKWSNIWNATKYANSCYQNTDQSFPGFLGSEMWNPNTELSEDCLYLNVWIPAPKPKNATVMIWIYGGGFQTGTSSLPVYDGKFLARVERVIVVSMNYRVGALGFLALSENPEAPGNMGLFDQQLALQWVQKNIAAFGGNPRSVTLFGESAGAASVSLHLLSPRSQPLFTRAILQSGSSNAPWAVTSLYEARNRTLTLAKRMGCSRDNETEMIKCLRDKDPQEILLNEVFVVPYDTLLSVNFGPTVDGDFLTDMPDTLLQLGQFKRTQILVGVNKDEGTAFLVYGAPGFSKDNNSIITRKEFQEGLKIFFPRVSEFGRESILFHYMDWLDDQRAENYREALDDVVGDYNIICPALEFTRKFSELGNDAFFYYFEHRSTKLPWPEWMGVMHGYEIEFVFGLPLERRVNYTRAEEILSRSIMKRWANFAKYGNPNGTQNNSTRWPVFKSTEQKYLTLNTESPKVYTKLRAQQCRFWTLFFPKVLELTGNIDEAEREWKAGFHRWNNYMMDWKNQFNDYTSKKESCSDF

Acetylcholinesterase [2] = target: Acetylcholinesterase (Homo sapiens, UniProt P22303); experiment: Inhibition of AChE (unknown origin)
Chain of Acetylcholinesterase (Homo sapiens, UniProt P22303) (P22303 whole entry): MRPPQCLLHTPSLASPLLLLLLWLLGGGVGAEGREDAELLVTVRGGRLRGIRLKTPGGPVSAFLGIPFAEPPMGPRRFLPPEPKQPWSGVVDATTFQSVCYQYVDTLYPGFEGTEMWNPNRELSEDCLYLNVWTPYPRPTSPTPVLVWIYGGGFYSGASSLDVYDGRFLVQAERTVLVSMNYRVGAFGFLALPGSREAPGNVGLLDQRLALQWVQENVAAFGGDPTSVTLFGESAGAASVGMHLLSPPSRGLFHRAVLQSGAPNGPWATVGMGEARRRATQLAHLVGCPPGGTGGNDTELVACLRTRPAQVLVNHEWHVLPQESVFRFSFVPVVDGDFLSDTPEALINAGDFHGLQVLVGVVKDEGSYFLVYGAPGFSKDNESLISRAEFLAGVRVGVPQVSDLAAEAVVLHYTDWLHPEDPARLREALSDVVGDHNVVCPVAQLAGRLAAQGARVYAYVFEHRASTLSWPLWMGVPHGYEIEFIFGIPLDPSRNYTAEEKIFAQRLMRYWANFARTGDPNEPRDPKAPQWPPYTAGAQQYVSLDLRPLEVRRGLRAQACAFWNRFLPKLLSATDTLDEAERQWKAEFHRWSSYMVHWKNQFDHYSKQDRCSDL

Structure (SMILES)	Papp at 50 µM (in vitro) [×10⁻⁶ cm/s]	IC50 (Acetylcholinesterase [1]) [µM]	IC50 (Cholinesterase) [µM]	IC50 (Acetylcholinesterase [2]) [µM]
NS(=O)(=O)c1cc2c(cc1Cl)N=CNS2(=O)=O [CHLOROTHIAZIDE]	1.36	–	–	–
O=C(CNS(=O)(=O)c1cccc(Cl)c1)Nc1ccc2c(=O)n3c(nc2c1)CCC3	–	3.98	> 50	–
CCc1ccc(S(=O)(=O)NCC(=O)Nc2ccc3c(=O)n4c(nc3c2)CCC4)cc1	–	31.7	> 50	–
O=C(CNS(=O)(=O)c1ccccc1)Nc1ccc2c(=O)n3c(nc2c1)CCC3	–	5.39	48.5	–
O=C(CNS(=O)(=O)c1ccccc1Br)Nc1ccc2c(=O)n3c(nc2c1)CCC3	–	4.17	> 50	–
O=C(CNS(=O)(=O)c1cccc(Br)c1)Nc1ccc2c(=O)n3c(nc2c1)CCC3	–	7.88	> 50	–
COc1ccc2[nH]c(C(=O)Nc3ccc4nc5n(c(=O)c4c3)CCC5)cc2c1	–	–	–	0.12
CC(C)c1cc(C(C)C)c(S(=O)(=O)NCC(=O)Nc2ccc3c(=O)n4c(nc3c2)CCC4)c(C(C)C)c1	–	> 50	> 50	–
O=C(CNS(=O)(=O)c1cc(Cl)cc(Cl)c1)Nc1ccc2c(=O)n3c(nc2c1)CCC3	–	> 50	> 50	–
O=C(CNS(=O)(=O)c1ccc(Cl)cc1)Nc1ccc2c(=O)n3c(nc2c1)CCC3	–	48.3	> 50	–
COc1ccc(S(=O)(=O)NCC(=O)Nc2ccc3c(=O)n4c(nc3c2)CCC4)cc1	–	5.58	32.9	–
O=C(CNS(=O)(=O)c1c(Cl)cccc1Cl)Nc1ccc2c(=O)n3c(nc2c1)CCC3	–	4.06	47.7	–
O=C(CNS(=O)(=O)c1cccc(C(F)(F)F)c1)Nc1ccc2c(=O)n3c(nc2c1)CCC3	–	20.9	> 50	–
O=C(CNS(=O)(=O)c1cc(Cl)c(F)cc1F)Nc1ccc2c(=O)n3c(nc2c1)CCC3	–	> 50	> 50	–
O=C(CNS(=O)(=O)c1cccc(F)c1)Nc1ccc2c(=O)n3c(nc2c1)CCC3	–	4.43	> 50	–
O=C(CCCCN1CCN(Cc2ccccc2)CC1)Nc1ccc2nc3n(c(=O)c2c1)CCC3	–	–	–	0.00329
CCCc1ccc(S(=O)(=O)NCC(=O)Nc2ccc3c(=O)n4c(nc3c2)CCC4)cc1	–	> 50	> 50	–
CNC(=C[N+](=O)[O-])NCCSCc1ccc(CN(C)C)o1 [RANITIDINE]	0.06	–	–	–
COc1ccc(S(=O)(=O)NCC(=O)Nc2ccc3c(=O)n4c(nc3c2)CCC4)c(OC)c1	–	9.19	> 50	–
